Measurements from patent US20250092269A1, “ANTI-BIOFOULING COMPOSITION” (Montana Technological University, priority 2023, published 2025).

Key:
biofilm [1] = experiment: Biofilm biovolume after 4-hour filtration test, furanone C-30 fibers vs control fibers (SEM); assay type: cell-based; settings: furanone C-30 control-released from 3:1 PCL/PEG fibers on MCE filter
Excerpt: (§1) Bench Scale Nanofiltration System: A bench scale nanofiltration system for monitoring water output efficiencies and biofilm formation on MCE membranes was used as illustrated in FIG. 2.
In this example, a membrane comprising a filter coating, which was deposited by electrospinning fibers comprising a polymer blend (3:1 polycaprolactone (PCL) to polyethylene glycol (PEG)) associated with one or more anti-QS molecules furanone C-30 was compared to a control membrane comprising a filter coating, which was deposited by electrospinning fibers comprising a polymer blend (3:1 polycaprolactone (PCL) to polyethylene glycol (PEG).
FIG. 8A is a scanning electron micrograph image showing the biofilm biovolume after a 4-hour filtration test of a MCE filter comprising electrospun PCL/PEG fibers. FIG. 8B is a scanning electron micrograph image showing the biofilm biovolume after a 4-hour filtration test of a MCE filter comprising electrospun PCL/PEG fibers associated with one or more anti-QS furanone C-30 molecules.

P. aeruginosa (PAO1) = experiment: Biofilm growth on filtration membranes in bench scale nanofiltration system, 4-hour operation (CLSM); assay type: cell-based, Pseudomonas aeruginosa
Protocol: Polymeric Component: A polymer blend for electrospinning was prepared comprising 3 wt. % PEG (8,000 MW, Sigma Aldrich) and 8.9 wt. % PCL (80,000 MW, Sigma Aldrich) in chloroform. The PEG/PCL polymer blend was stirred with a Teflon coated stir bar at 80° C. until no visible polymer weas present.
Anti-Quorum Sensing Molecules: The polymeric component comprising the polymer blend was seeded with Urolithin A at a concentration of 200 μg/mL during mixing. Fiber mats comprising Urolithin A were stored at 4-8° C. for preservation prior to application.
Electrospinning: The polymeric component comprising the polymer blend was pumped continuously by a syringe pump at a fixed rate of 0.250 mL/hour to a vertical Spraybase electrospinner equipped with a 22-guage needle at a voltage of 6.6 kV and grounded equidistant copper-plated parallel electrodes for uniaxially aligned deposition (parallel gap electrospinning). A separation distance of 4 cm between the needle and grounded electrodes were maintained for 20 minutes while the fiber mat was fabricated. Fiber mats were rotated at 10 minutes to achieve a crosshatch filter pattern. Fibers were then placed onto MCE membranes and investigated for their controlled release of the anti-QS molecules. […]

[2] = Membrane performance (water quantity output) in bench scale nanofiltration system; settings: electrospun 3:1 PCL:PEG fibers with Urolithin A 200 μg/mL; 4-hour operation
Excerpt: as §1
In this example, biofouling on filtration membranes was investigated by examining anti-quorum sensing molecules in P. aeruginosa (PAO1). More specifically, a membrane comprising an unmodified membrane (referred to “MCE Control”); a membrane (referred to as “Control Fibers”) comprising a filter coating, which was deposited by electrospinning fibers comprising a polymer blend (3:1 polycaprolactone (PCL) to polyethylene glycol (PEG)); and a membrane (referred to as “Anti-QS Fibers” comprising a filter coating, which was deposited by electrospinning fibers comprising a polymer blend (3:1 polycaprolactone (PCL) to polyethylene glycol (PEG)) associated with one or more anti-QS molecules (200 μg/mL). Biofilm growth over a 4-hour operation was investigated and compared for the MCE Control, Control Fibers, and Anti-QS Fibers.

biofilm [3] = experiment: Biofilm growth on membranes with Urolithin A fibers at 50, 100, 200 μg/mL (CLSM); assay type: cell-based; settings: PCL/PEG fibers with Urolithin A 50, 100, 200 μg/mL; FIG. 6A-6D
Protocol: as §1
In this example, biofouling on filtration membranes was investigated by comparing membranes comprising a filter coating associated with one or more anti-QS Urolithin A molecules having concentrations of 50 μg/mL, 100 μg/mL, and 200 μg/mL.
FIG. 6A is a confocal microscopy (CLSM) image showing the biofilm growth on an unmodified control membrane. FIG. 6B is a confocal microscopy (CLSM) image showing the biofilm growth on a membrane comprising electrospun PCL/PEG fibers associated with one or more anti-QS Urolithin A molecules (50 μg/mL). FIG. 6C is a confocal microscopy (CLSM) image showing the biofilm growth on a membrane comprising electrospun PCL/PEG fibers associated with one or more anti-QS Urolithin A molecules (100 μg/mL). FIG. 6D is a confocal microscopy (CLSM) image showing the biofilm growth on a membrane comprising electrospun PCL/PEG fibers associated with one or more anti-QS Urolithin A molecules (200 μg/mL).

| SMILES | reduction in biovolume relative to the control membrane (PCL/PEG fibers) (biofilm [1]) [%] | reduction of biofilm formation during filtration compared to the MCE Control (P. aeruginosa (PAO1); electrospun 3:1 PCL:PEG coating with Urolithin A 200 μg/mL) [%] | increase of biovolume reduction by controlled release of anti QS molecules (P. aeruginosa (PAO1); electrospun 3:1 PCL:PEG fibers with Urolithin A 200 μg/mL) [%] | increase of flux [2] [%] | biofilm biovolume vs concentration of Urolithin A in fibers (biofilm [3]) |
| --- | --- | --- | --- | --- | --- |
| O=C1C=C(Br)/C(=C/Br)O1 [furanone C-30] | 57.5 |  |  |  |  |
| O=c1oc2cc(O)ccc2c2ccc(O)cc12 [Urolithin A] |  | 83.48 | 26.05 | 52.78 | biofilm biovolume reduction corresponding to the increased concentrations |
